Measured values published in US11498899B2, “Nitrone herbicides” (FMC Corporation, priority 2016, dated 2022).

How the values were obtained:
[1] = system: barnyardgrass (Echinochloa crus-galli); assay: Test B flooded paddy test, visual rating 0-100; conditions: Flood, 250 g ai/ha, applied to paddy water, rated after 13 to 15 days
[2] = system: foxtail, green (green foxtail, Setaria viridis); assay: Test A preemergence, visual injury rating 0-100; format: in vivo; conditions: for Foxtail, Green plant response rating: 31 g ai/ha, 0 to 100 scale (0 no effect, 100 complete control), approx. 10 days; for Foxtail, Green plant response rating (0 to 100 scale): 125 g ai/ha
kochia (Kochia scoparia) [3] = assay: Test A preemergence, visual injury rating 0-100; format: in vivo; conditions: for Kochia plant response rating: 31 g ai/ha, 0 to 100 scale (0 no effect, 100 complete control), approx. 10 days; for Kochia plant response rating (0 to 100 scale): 125 g ai/ha
[4] = system: pigweed (Amaranthus retroflexus); assay: Test A preemergence, visual injury rating 0-100; format: in vivo; conditions: for Pigweed plant response rating: 31 g ai/ha, 0 to 100 scale (0 no effect, 100 complete control), approx. 10 days; for Pigweed plant response rating (0 to 100 scale): 125 g ai/ha
[5] = system: ryegrass, Italian (Italian ryegrass, Lolium multiflorum); assay: Test A preemergence, visual injury rating 0-100; format: in vivo; conditions: for Ryegrass, Italian plant response rating: 31 g ai/ha, 0 to 100 scale (0 no effect, 100 complete control), approx. 10 days; for Ryegrass, Italian plant response rating (0 to 100 scale): 125 g ai/ha
[6] = system: ragweed (common ragweed, Ambrosia elatior); assay: Test A preemergence, visual injury rating 0-100; format: in vivo; conditions: for Ragweed plant response rating: 31 g ai/ha, 0 to 100 scale (0 no effect, 100 complete control), approx. 10 days; for Ragweed plant response rating (0 to 100 scale): 125 g ai/ha
[7] = system: foxtail, green (green foxtail, Setaria viridis); assay: Test A postemergence, visual injury rating 0-100; format: in vivo; conditions: 0 to 100 scale
corn (Zea mays) = assay: Test A postemergence, visual injury rating 0-100; format: in vivo; conditions: 0 to 100 scale
kochia (Kochia scoparia) [8] = assay: Test A postemergence, visual injury rating 0-100; format: in vivo; conditions: 0 to 100 scale
[9] = system: galium (catchweed bedstraw, Galium aparine); assay: Test A postemergence, visual injury rating 0-100; format: in vivo; conditions: 0 to 100 scale
[10] = system: blackgrass (Alopecurus myosuroides); assay: Test A postemergence, visual injury rating 0-100; format: in vivo; conditions: 0 to 100 scale
[11] = system: pigweed (Amaranthus retroflexus); assay: Test A postemergence, visual injury rating 0-100; format: in vivo; conditions: 0 to 100 scale
[12] = system: wheat (Triticum aestivum); assay: Test A postemergence, visual injury rating 0-100; format: in vivo; conditions: 0 to 100 scale
[13] = system: barnyardgrass (Echinochloa crus-galli); assay: Test A postemergence, visual injury rating 0-100; format: in vivo; conditions: 0 to 100 scale
[14] = system: ryegrass, Italian (Italian ryegrass, Lolium multiflorum); assay: Test A postemergence, visual injury rating 0-100; format: in vivo; conditions: 0 to 100 scale
[15] = system: ragweed (common ragweed, Ambrosia elatior); assay: Test A postemergence, visual injury rating 0-100; format: in vivo; conditions: 0 to 100 scale
rice (Oryza sativa) = assay: Test B flooded paddy test, visual rating 0-100 (0 no effect, 100 complete control); conditions: Flood, 250 g ai/ha, applied to paddy water, rated after 13 to 15 days
[16] = system: barnyardgrass (Echinochloa crus-galli); assay: Test A preemergence, visual injury rating 0-100 (0 no effect, 100 complete control); format: in vivo; conditions: for Barnyardgrass plant response rating: 31 g ai/ha, 0 to 100 scale (0 no effect, 100 complete control), approx. 10 days; for Barnyardgrass plant response rating (0 to 100 scale): 125 g ai/ha
[17] = system: ducksalad (Heteranthera limosa); assay: Test B flooded paddy test, visual rating 0-100; conditions: Flood, 250 g ai/ha, applied to paddy water, rated after 13 to 15 days

Structure (SMILES) | Barnyardgrass plant response rating (0 to 100 scale) [1] | Foxtail, Green plant response rating [2] | Foxtail, Green plant response rating (0 to 100 scale) [2] | Kochia plant response rating (kochia (Kochia scoparia) [3]) | Kochia plant response rating (0 to 100 scale) (kochia (Kochia scoparia) [3]) | Pigweed plant response rating [4] | Pigweed plant response rating (0 to 100 scale) [4] | Ryegrass, Italian plant response rating [5] | Ryegrass, Italian plant response rating (0 to 100 scale) [5] | Ragweed plant response rating [6] | Ragweed plant response rating (0 to 100 scale) [6] | Foxtail, Green plant response rating ([7]; 31 g ai/ha) | Foxtail, Green plant response rating ([7]; 125 g ai/ha) | Corn plant response rating (corn (Zea mays); 31 g ai/ha) | Corn plant response rating (corn (Zea mays); 125 g ai/ha) | Kochia plant response rating (kochia (Kochia scoparia) [8]; 31 g ai/ha) | Kochia plant response rating (kochia (Kochia scoparia) [8]; 125 g ai/ha) | Galium plant response rating ([9]; 31 g ai/ha) | Galium plant response rating ([9]; 125 g ai/ha) | Blackgrass plant response rating ([10]; 31 g ai/ha) | further results
CC1=[N+]([O-])[C@H](C(=O)Nc2cccc(F)c2F)[C@@H](c2ccc(C)cc2)C1 [Compound 42, (2S,3R)—N-(2,3-Difluorophenyl)-3,4-dihydro-5-methyl-3-(4-methylphenyl)-2H-pyrrole-2-carboxamide 1-oxide] | 90 | 100 | 100 | 0 | 90 | 0 | 80 | 0 | 80 | 0 | 70 | 50 | 90 | 20 | 50 | 0 | 30 | 40 | 60 | 80 | Blackgrass plant response rating ([10]; 125 g ai/ha): 80; Pigweed plant response rating ([11]; 31 g ai/ha): 0; Pigweed plant response rating ([11]; 125 g ai/ha): 20; Wheat plant response rating ([12]; 31 g ai/ha): 20; Wheat plant response rating ([12]; 125 g ai/ha): 80; Barnyardgrass plant response rating ([13]; 31 g ai/ha): 50; Barnyardgrass plant response rating ([13]; 125 g ai/ha): 90; Ryegrass, Italian plant response rating ([14]; 31 g ai/ha): 0; Ryegrass, Italian plant response rating ([14]; 125 g ai/ha): 30; Ragweed plant response rating ([15]; 31 g ai/ha): 0; Ragweed plant response rating ([15]; 125 g ai/ha): 30; Rice plant response rating (0 to 100 scale) (rice (Oryza sativa)): 30; Barnyardgrass plant response rating [16]: 100; Barnyardgrass plant response rating (0 to 100 scale) [16]: 100; Ducksalad plant response rating (0 to 100 scale) [17]: 100
CC1=[N+]([O-])[C@@H](C(=O)Nc2cccc(F)c2F)[C@H](c2cccc(C(F)(F)F)c2)C1 [Compound 45] | 75 | 90 | 100 | 0 | 20 | 0 | 0 | 10 | 80 | 0 | 80 | 30 | 80 | 40 | 50 | 0 | 0 | 20 | 30 | 20 | Blackgrass plant response rating ([10]; 125 g ai/ha): 60; Pigweed plant response rating ([11]; 31 g ai/ha): 0; Pigweed plant response rating ([11]; 125 g ai/ha): 20; Wheat plant response rating ([12]; 31 g ai/ha): 30; Wheat plant response rating ([12]; 125 g ai/ha): 60; Barnyardgrass plant response rating ([13]; 31 g ai/ha): 10; Barnyardgrass plant response rating ([13]; 125 g ai/ha): 50; Ryegrass, Italian plant response rating ([14]; 31 g ai/ha): 10; Ryegrass, Italian plant response rating ([14]; 125 g ai/ha): 40; Ragweed plant response rating ([15]; 31 g ai/ha): 0; Ragweed plant response rating ([15]; 125 g ai/ha): 0; Rice plant response rating (0 to 100 scale) (rice (Oryza sativa)): 0; Barnyardgrass plant response rating [16]: 40; Barnyardgrass plant response rating (0 to 100 scale) [16]: 100; Ducksalad plant response rating (0 to 100 scale) [17]: 95
